This note sets out measurements from EP0101412A2, “Anthelmintics” (CIBA-GEIGY AG, priority 1982, dated 1984).

“And” between values parts separate entries of the source, which are not always exact repeats. Equal entries are not always repeated.

This experiment has as its system Fasciola hepatica. In words: Trial in sheep artificially infected with Fasciola hepatica (faecal egg counts and adult helminth counts at necropsy). It counts as in vivo, Schafe. The following applies: for adulte Helminthen Mittelwert: group mean of 4 sheep; for EPG 12. Woche / EPG 13. Woche / adulte Helminthen Anzahl: sheep, individual animals; for EPG 12. Woche: 12th week after infection; for EPG 13. Woche: 13th week after infection; for adulte Helminthen Anzahl: at necropsy; for adulte Helminthen Reduktion in %: versus untreated control animals. The procedure: Versuch an mit Fasciola hepatica und Nematoden […] von Fasciola hepatica infiziert. Zu diesem Zweck […] in einer wässrigen 0,4%igen Suspension von Carboxymethylcellulose direkt in den Rumen […] oral mit je 10.000 bzw. 5.000 […] 3) von […] Trichostrongylus colubriformis und Haemonchus contortus infiziert. Für die Medikierung wurden die Versuchstiere in gleichgrossen Gruppen und in […], in denen der Anteil von Wirkstoff der Formel 1 2-5 mg/kg und der Anteil Wirkstoff der Formel II 3-7 mg/kg betrugen, an die […] in Gehegeboxen unter Normalbedingungen gehalten. Zur […] in bestimmten Zeitinvervallen nach Infizierung und Medikierung die mit dem Kot […] und die […]. Die erhaltenen Resultate […] und der Kontrollgruppen wurden für die Auswertung verglichen. Indikation: Fasciola hepatica […]): 19

For the compound `CSc1nc2cc(Cl)c(Oc3cccc(Cl)c3Cl)cc2[nH]1` [Substanz I, 5-Chlor-6-(2',3'-dichlorphenoxy)-2-methylthiobenzimidazol], for the setting “I 2,5 mg/kg”, the “adulte Helminthen Mittelwert” value was 48,5; the “EPG 12. Woche” value is 210 Eier pro gr Faeces and 160 Eier pro gr Faeces and 120 Eier pro gr Faeces and 20 Eier pro gr Faeces; the “EPG 13. Woche” value is 130 Eier pro gr Faeces and 160 Eier pro gr Faeces and 180 Eier pro gr Faeces and 15 Eier pro gr Faeces; the “adulte Helminthen Anzahl” value was 58 and 65 and 51 and 20. Further, the “adulte Helminthen Reduktion in %” value (I 2,5 mg/kg) is 52,7%.

`c1ccc([C@H]2CN3CCSC3=N2)cc1` [Substanz II, L-(-)-2,3,5,6-Tetrahydro-6-phenylimidazo[2,1-b]-thiazol]: for the setting “II 6,75 mg/kg”, the “adulte Helminthen Mittelwert” value is reported as 92,8; the “EPG 12. Woche” value was 225 Eier pro gr Faeces and 990 Eier pro gr Faeces and 160 Eier pro gr Faeces and 226 Eier pro gr Faeces; the “EPG 13. Woche” value is 810 Eier pro gr Faeces and 1140 Eier pro gr Faeces and 250 Eier pro gr Faeces (2×); the “adulte Helminthen Anzahl” value is 103 and 108 and 71 and 89. Also, the “adulte Helminthen Reduktion in %” value (II 6,75 mg/kg) is 9,6%.
